Laboratory results from patent US5958944A, “Benzamide compounds and pharmaceutical use thereof” (Yoshitomi Pharmaceutical Industries, Ltd., priority 1994, dated 1999).

Key:
[1] = system: spontaneously hypertensive rats (SHR); assay: Pharmacological Experiment 1: hypotensive effects, systolic blood pressure at one hour after oral administration, tail cuff method; format: in vivo, rat; details: SHR P.O., 30 mg/kg
Description: Pharmacological Experiment 1: hypotensive effects
To spontaneously hypertensive rats (SHR) weighing 350-450 g (3-5 per group) was orally administered a test compound (30 mg/kg) dissolved in 0.5% hydroxypropylmethylcellulose, and systolic blood pressure at one hour after administration was determined by tail cuff method to examine hypotensive effects.

thoracic aorta = assay: Pharmacological Experiment 2: vasodilating effects, relaxation of phenylephrine-contracted thoracic aorta rings; format: cell-based; details: Oryctolagus cuniculus; rabbit thoracic aorta rings contracted with phenylephrine (10^-6 M); contraction by phenylephrine as 100%; read-out: vasodilating action (concentration necessary for 50% relaxation, IC50)
Description: Pharmacological Experiment 2: vasodilating effects
Male rabbits (body weight 1.9-3.0 kg) were anesthetized with sodium pentobarbital and killed by exsanguinity. The thoracic aorta was removed and about 2 mm wide ring specimens were prepared. The specimens were hung in a 40 ml Magnus bath filled with Krebs-Henseleit solution (NaCl 117 mM; KCl 4.7 mM; CaCl2 2.5 mM; MgSO4 1.2 mM; NaHCO3 24.8 mM; KH2 PO4 1.2 mM; glucose 11.0 mM) at 37° C. at a load of 2 g. The Magnus bath was constantly aerated with a mixed gas (95% oxygen+5% carbon dioxide). The tension of the specimens was measured by isometric transducer (TB-611T, Nihon Koden). The specimens were contracted with phenylephrine (10^-6 M) and when the contraction became constant, the compound was cumulatively added to observe relaxing response. The relaxing response by the compound was calculated relative to contraction by phenylephrine as 100% as the concentration necessary for 50% relaxation (IC50, μM).

tracheal specimen = assay: Pharmacological Experiment 3: effect on contraction caused by acetylcholine in extracted tracheal specimen; format: cell-based; details: Cavia porcellus; guinea pig trachea contracted with acetylcholine (10^-6 M); relative to maximum response by papaverine (10^-4 M) as 100%; read-out: bronchodilative action (IC50)
Description: Pharmacological Experiment 3: Effect on contraction caused by acetylcholine in tracheal specimen extracted from guinea pig
Male Hartley guinea pigs (body weight 260-390 g) were anesthetized by intraperitoneal administration of pentobarbital sodium (100 mg/kg) and killed by exsanguinity. The trachea was removed and ventral cartilage was cut open and ligament was cut in 3 mm width to prepare specimens. The specimens were hung in a 40 ml Magnus bath filled with Krebs-Henseleit solution (NaCl 117 mM; KCl 4.7 mM; CaCl2 2.5 mM; MgSO4 1.2 mM; NaHCO3 24.8 mM; KH2 PO4 1.2 mM; glucose 11.0 mM) at 37° C. at a load of 1 g. The Magnus bath was constantly aerated with a mixed gas (95% oxygen+5% carbon dioxide). The tension of the specimens was measured by isometric transducer (TB-611T, Nihon Koden) and recorded on a recorder (Ti-102, Tokai Irika). The specimens were contracted with acetylcholine (10^-6 M) and when the contraction became constant, the compound was cumulatively added to observe relaxing response. The relaxing response by the compound was calculated relative to maximum response by papaverine (10^-4 M) as 100% as the concentration necessary for 50% relaxation (IC50, μM).

| SMILES | hypotensive effect [1] [mmHg] | IC50 (thoracic aorta) [nM] | IC50 (tracheal specimen) [nM] |
| --- | --- | --- | --- |
| C[C@@H](N)c1ccc(C(=O)Nc2ccncc2)cc1 [Example 1, (R)-N-(4-pyridyl)-4-(1-aminoethyl)benzamide] | -116 | – | – |
| C[C@@H](N)c1ccc(C(=O)Nc2ccnc3[nH]ccc23)cc1 [Example 9, (R)-(+)-N-(1H-pyrrolo[2,3-b]pyridin-4-yl)-4-(1-aminoethyl)benzamide] | -131 | 50 | 50 |
| C[C@@H](N)c1ccc(C(=O)Nc2ccnc3[nH]ccc23)cc1N=[N+]=[N-] [Example 150, (R)-(-)-N-(1H-pyrrolo[2,3-b]pyridin-4-yl)-4-(1-aminoethyl)-3-azidobenzamide] | – | 30 | – |
